Source: ChEMBL document CHEMBL5465560, “Selectivity Literature for EUbOPEN Chemogenomic Library” (2024)
Values belong to the compound of their own block, whether it stands above or below them.

Legend:
[1] = biological target: Mitogen-activated protein kinase kinase kinase kinase 1 (Homo sapiens) (UniProt Q92918); test: Selectivity interaction (KinomeScan (DiscoverX)) EUB0000655a MAP4K1; settings: at 10 µM
[2] = biological target: RAF proto-oncogene serine/threonine-protein kinase (Homo sapiens) (UniProt P04049); test: Selectivity interaction (Millipore kinase profiler) EUB0000124b RAF1; settings: at 10 µM
RAF proto-oncogene serine/threonine-protein kinase (Homo sapiens), sequence (P04049 whole entry): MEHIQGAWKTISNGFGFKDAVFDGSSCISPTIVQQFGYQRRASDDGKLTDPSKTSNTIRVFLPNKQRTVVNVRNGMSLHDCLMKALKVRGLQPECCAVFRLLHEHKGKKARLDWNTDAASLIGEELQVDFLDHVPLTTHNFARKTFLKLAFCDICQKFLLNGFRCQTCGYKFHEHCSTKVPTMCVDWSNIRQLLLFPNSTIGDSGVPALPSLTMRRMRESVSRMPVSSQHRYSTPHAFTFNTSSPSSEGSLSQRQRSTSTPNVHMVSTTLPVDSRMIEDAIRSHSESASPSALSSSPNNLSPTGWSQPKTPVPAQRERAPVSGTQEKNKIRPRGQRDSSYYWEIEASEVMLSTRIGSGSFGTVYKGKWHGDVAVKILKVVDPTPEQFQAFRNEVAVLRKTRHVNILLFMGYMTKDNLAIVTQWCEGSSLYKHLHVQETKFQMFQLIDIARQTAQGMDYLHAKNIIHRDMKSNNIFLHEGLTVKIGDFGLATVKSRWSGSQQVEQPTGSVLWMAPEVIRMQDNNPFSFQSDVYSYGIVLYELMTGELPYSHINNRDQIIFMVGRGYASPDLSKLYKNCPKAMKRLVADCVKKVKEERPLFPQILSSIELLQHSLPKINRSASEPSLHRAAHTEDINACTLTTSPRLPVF

[3] = biological target: TRAF2 and NCK-interacting protein kinase (Homo sapiens) (UniProt Q9UKE5); test: Selectivity interaction (KinomeScan (DiscoverX)) EUB0000618a TNIK; settings: at 10 µM
TRAF2 and NCK-interacting protein kinase (Homo sapiens), sequence (Q9UKE5 whole entry, looked up): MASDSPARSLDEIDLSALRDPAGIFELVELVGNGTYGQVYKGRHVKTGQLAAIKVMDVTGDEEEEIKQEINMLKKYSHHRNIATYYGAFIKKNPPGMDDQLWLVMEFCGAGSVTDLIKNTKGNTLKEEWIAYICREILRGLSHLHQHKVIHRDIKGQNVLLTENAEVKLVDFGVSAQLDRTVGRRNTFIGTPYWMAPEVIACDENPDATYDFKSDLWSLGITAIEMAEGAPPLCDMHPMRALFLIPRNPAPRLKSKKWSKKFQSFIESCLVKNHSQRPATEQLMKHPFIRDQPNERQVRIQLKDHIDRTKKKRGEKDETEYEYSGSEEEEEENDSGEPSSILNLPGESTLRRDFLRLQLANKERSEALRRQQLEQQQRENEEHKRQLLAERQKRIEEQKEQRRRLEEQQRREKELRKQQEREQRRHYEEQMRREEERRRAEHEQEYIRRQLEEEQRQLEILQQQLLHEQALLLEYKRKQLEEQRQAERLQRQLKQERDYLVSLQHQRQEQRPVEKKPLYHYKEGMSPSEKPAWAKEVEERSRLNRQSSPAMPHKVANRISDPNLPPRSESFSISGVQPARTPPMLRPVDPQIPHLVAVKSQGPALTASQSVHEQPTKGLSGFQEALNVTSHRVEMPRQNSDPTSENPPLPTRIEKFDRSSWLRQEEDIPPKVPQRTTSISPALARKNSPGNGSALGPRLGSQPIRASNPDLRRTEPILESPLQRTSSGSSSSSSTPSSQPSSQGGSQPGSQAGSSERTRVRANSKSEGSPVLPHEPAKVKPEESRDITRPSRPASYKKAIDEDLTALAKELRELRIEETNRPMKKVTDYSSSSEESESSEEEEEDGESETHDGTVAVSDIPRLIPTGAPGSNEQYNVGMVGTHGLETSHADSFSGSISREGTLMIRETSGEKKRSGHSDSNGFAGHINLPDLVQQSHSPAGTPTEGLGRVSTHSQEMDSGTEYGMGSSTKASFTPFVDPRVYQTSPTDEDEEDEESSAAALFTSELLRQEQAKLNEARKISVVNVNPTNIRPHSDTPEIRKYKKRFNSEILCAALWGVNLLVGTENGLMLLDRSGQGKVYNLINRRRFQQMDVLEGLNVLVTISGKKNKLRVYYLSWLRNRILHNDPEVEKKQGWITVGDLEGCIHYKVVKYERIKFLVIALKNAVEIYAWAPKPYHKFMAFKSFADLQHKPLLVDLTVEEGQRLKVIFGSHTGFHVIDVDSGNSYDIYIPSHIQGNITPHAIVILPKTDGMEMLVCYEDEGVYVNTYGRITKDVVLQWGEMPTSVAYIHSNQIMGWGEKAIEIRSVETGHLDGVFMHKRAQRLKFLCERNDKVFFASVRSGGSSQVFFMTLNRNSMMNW

[4] = biological target: Cyclin-dependent kinase 4/cyclin D1 (Homo sapiens) (UniProt P11802+P24385); test: (§1) Selectivity interaction (KinomeScan (DiscoverX)) EUB0000618a CDK4; type: protein-complex assay; settings: at 10 µM
[5] = biological target: CDK4/Cyclin D3 (Homo sapiens) (UniProt P11802+P30281); test: as §1; type: protein-complex assay; settings: at 10 µM
[6] = biological target: Cyclin-dependent kinase 5/CDK5 activator 1 (Homo sapiens) (UniProt Q00535+Q15078); test: Selectivity interaction (SelectScreen profiling (Invitrogen)) EUB0000607a CDK5; type: protein-complex assay; settings: at 2 µM
Cyclin-dependent kinase 5/CDK5 activator 1 (Homo sapiens), sequence (Q00535 whole entry): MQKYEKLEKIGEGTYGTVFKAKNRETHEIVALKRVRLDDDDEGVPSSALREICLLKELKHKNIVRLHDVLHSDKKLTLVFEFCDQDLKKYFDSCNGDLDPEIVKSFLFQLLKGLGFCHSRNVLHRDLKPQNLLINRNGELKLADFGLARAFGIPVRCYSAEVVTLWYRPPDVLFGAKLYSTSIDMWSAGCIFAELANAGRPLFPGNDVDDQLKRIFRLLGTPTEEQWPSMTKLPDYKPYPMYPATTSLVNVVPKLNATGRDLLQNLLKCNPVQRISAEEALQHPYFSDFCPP
Cyclin-dependent kinase 5/CDK5 activator 1 (Homo sapiens), sequence (Q15078 99-307 partner limits assumed): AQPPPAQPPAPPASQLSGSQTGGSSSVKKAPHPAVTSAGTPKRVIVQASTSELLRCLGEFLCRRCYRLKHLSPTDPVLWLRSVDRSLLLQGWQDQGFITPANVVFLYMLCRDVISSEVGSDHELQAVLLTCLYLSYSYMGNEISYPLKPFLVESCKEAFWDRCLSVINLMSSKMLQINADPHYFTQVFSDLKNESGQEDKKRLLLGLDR

[7] = biological target: T1, Ribosomal protein S6 kinase delta-1 (Homo sapiens) (UniProt Q96S38); test: Selectivity interaction (ActivX KiNativ screen (ex vivo kinase selectivity in human PBMCs)) EUB0001619a RPS6KC1; type: cell-based; settings: PBMC, at 1 µM
T1 sequence (whole entry): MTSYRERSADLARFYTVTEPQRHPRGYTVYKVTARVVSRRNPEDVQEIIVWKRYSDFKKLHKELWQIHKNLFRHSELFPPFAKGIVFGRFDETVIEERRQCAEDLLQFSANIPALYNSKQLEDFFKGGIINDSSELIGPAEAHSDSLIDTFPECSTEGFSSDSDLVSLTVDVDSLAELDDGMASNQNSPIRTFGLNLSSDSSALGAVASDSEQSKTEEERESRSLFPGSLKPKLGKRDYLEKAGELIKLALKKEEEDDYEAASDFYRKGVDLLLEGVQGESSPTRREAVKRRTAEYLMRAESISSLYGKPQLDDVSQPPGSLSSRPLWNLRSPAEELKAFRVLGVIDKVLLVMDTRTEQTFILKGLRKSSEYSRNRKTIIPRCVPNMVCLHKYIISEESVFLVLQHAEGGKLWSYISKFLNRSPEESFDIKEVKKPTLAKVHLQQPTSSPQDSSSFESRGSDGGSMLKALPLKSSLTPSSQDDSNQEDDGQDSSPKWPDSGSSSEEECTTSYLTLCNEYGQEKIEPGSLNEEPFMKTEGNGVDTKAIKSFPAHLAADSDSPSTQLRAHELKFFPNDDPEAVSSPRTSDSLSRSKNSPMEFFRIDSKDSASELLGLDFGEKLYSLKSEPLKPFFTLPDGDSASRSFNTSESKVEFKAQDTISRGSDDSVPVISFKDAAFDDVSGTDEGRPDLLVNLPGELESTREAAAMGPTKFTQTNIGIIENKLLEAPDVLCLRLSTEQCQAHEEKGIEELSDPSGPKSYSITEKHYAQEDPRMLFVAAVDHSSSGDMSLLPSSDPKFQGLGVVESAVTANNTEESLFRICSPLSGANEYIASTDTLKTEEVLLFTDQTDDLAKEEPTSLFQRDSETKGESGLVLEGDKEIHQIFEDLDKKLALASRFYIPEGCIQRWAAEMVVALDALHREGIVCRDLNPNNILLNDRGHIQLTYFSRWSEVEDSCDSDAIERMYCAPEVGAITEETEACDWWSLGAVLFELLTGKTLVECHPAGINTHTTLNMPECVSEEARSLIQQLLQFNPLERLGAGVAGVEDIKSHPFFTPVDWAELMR

[8] = biological target: T2, Phosphorylase b kinase gamma catalytic chain, liver/testis isoform (Homo sapiens) (UniProt P15735); test: Selectivity interaction (Kinase panel (Invitrogen)) EUB0000639a PHKG2; settings: at 200 nM
T2 sequence (whole entry): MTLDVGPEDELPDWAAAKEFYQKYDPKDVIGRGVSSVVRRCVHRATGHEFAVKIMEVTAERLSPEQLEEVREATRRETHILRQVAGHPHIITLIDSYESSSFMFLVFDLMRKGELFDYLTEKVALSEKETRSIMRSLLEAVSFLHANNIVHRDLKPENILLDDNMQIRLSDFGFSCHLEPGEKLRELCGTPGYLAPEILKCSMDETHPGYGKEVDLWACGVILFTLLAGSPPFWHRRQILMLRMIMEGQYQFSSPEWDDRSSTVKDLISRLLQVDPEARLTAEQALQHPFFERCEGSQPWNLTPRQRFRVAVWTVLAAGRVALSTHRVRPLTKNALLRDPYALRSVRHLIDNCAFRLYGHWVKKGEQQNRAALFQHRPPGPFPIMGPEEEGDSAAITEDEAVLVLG

[9] = biological target: T3, Serine/threonine-protein kinase MAK (Homo sapiens) (UniProt P20794); test: Selectivity interaction (KinomeScan (DiscoverX)) EUB0000092b MAK; settings: at 10 µM
T3 sequence (whole entry): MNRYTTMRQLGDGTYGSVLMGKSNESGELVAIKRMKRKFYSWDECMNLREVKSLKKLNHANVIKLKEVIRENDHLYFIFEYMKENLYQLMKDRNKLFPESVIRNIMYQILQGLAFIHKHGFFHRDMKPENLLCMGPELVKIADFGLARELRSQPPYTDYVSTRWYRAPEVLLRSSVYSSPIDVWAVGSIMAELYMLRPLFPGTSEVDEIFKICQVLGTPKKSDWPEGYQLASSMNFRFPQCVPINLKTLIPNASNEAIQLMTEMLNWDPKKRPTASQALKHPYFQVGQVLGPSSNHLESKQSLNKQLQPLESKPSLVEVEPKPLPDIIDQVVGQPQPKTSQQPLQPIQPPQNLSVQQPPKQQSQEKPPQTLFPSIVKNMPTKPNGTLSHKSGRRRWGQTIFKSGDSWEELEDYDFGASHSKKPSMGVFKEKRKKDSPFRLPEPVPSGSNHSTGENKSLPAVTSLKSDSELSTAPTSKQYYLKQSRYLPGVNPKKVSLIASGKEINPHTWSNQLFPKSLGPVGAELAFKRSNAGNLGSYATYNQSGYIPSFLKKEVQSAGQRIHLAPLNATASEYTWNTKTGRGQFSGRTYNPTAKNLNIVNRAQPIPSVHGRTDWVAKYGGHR

Mitogen-activated protein kinase kinase kinase kinase 1 (Homo sapiens), sequence (Q92918 whole entry, looked up): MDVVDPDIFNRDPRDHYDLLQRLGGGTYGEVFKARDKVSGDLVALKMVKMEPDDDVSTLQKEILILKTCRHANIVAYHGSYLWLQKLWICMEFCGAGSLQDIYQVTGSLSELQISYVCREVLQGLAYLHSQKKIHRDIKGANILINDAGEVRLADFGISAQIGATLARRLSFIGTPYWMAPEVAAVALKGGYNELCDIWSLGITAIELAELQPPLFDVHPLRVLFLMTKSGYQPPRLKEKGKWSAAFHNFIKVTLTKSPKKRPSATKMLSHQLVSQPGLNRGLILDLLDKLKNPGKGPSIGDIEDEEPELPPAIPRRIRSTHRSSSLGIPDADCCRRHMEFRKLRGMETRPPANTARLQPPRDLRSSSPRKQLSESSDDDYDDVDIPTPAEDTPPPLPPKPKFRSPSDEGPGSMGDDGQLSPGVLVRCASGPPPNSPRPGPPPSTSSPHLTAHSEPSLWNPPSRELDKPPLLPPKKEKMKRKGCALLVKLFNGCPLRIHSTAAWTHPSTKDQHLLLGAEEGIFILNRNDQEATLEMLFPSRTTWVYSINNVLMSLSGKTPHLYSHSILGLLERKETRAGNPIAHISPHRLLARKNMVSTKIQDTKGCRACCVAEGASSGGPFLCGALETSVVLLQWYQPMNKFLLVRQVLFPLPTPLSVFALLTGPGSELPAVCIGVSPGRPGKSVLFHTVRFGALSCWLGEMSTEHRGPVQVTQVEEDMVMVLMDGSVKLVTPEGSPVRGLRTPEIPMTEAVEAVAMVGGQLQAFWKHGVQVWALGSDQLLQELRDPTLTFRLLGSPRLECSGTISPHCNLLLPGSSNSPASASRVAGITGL

Compound: CN(C)CCOc1ccc(-c2nc(-c3ccncc3)c(-c3ccc4c(c3)CC/C4=N\O)[nH]2)cc1
% of control [1]: 97%

% of control [2]: 108%
Compound: CC(=O)Nc1cccc(-n2c(=O)n(C3CC3)c(=O)c3c(Nc4ccc(I)cc4F)n(C)c(=O)c(C)c32)c1

Compound: O[C@H]1CC[C@H](Nc2ncc3nc(Nc4c(F)cc(F)cc4F)n([C@H]4CCOC4)c3n2)CC1
% of control [3]: 83% | % of control [4]: 100% | % of control [5]: 80%

Compound: CNC(=O)Nc1ccc(-c2nc(N3CC4CCC(C3)O4)c3cnn(C4CCC5(CC4)OCCO5)c3n2)cc1
% of inhibition [6]: 1%

Compound: N#Cc1cccc(-c2c[nH]c3ncnc(N4CCOCC4)c23)c1
% of inhibition [7]: -2%

% of inhibition [8]: 24.7%
Compound: CC[C@@H]1[C@H](F)C(=O)N[C@@H]1COc1nccc2cc(C(N)=O)c(OC)cc12 [ZIMLOVISERTIB]

Compound: CCC(=O)N1CCN(c2ccc(-n3c(=O)ccc4cnc5ccc(-c6cnc7ccccc7c6)cc5c43)cc2C(F)(F)F)CC1
% of control [9]: 68%
